Test [1] addresses T1, AMP deaminase 1 (Homo sapiens, UniProt P23109).
T1 sequence (P23109 whole entry): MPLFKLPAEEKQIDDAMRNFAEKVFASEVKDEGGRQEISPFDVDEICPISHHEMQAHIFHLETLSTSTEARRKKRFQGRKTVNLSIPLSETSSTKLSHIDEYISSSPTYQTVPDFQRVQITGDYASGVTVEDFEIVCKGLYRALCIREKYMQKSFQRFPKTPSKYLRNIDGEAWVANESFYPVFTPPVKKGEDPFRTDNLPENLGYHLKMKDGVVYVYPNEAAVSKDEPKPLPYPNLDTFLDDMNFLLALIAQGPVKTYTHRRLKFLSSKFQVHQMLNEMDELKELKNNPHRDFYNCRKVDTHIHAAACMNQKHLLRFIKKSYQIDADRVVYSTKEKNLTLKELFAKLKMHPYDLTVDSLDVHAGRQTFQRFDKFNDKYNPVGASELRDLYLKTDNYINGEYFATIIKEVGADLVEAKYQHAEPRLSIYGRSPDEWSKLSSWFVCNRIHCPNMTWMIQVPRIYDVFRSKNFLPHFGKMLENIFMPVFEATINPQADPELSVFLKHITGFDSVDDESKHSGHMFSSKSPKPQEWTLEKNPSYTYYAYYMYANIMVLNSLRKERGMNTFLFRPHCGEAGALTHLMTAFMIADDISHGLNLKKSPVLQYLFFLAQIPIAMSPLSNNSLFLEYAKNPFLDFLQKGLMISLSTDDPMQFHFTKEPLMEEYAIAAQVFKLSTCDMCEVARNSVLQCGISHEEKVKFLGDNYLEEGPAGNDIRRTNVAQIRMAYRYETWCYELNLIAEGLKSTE
Description: Inhibition of human skeletal muscle AMPD1. Also noted: species or system Muscle tissue.

Test [2] can be described thus: Inhibition of porcine heart AMPD3. More on the design: species or system Sus scrofa.
A short description of test [3]: Inhibition of human recombinant AMPD1 deltaM54 mutant expressed in Sf9 cells.
A short description of test [4]: Inhibition of human recombinant AMPD2-1A/2 expressed in Sf9 cells.
Test [5] deals with T2, AMP deaminase 3 (Homo sapiens, UniProt Q01432).
T2 sequence (Q01432 whole entry): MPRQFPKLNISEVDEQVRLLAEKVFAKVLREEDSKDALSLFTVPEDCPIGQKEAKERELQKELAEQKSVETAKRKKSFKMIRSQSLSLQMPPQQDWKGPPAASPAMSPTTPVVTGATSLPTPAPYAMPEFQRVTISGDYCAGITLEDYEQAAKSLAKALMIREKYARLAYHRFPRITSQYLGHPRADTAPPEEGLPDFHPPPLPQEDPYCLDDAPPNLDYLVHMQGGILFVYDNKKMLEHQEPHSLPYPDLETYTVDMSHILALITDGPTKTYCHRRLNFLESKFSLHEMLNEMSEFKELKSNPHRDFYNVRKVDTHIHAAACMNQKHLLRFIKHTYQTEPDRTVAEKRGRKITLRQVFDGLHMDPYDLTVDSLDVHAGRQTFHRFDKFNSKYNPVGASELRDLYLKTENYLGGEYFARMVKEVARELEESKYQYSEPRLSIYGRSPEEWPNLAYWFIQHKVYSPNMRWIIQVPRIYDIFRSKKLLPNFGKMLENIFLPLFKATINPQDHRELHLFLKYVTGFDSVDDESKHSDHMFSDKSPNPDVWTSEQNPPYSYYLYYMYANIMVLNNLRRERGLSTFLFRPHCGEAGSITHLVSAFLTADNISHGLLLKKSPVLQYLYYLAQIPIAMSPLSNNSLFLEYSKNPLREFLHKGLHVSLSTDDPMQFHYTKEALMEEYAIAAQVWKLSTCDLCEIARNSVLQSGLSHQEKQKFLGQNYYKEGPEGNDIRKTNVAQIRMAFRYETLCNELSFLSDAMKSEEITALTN
Description: Inhibition of human recombinant AMPD3-1b expressed in Sf9 cells.

Test [6] deals with AMP deaminase (Arabidopsis thaliana, UniProt O80452, V211M). Description: Inhibition of Arabidopsis recombinant AMPD deltaV211M mutant expressed in Sf9 cells.
AMP deaminase, sequence (O80452 whole entry V211M): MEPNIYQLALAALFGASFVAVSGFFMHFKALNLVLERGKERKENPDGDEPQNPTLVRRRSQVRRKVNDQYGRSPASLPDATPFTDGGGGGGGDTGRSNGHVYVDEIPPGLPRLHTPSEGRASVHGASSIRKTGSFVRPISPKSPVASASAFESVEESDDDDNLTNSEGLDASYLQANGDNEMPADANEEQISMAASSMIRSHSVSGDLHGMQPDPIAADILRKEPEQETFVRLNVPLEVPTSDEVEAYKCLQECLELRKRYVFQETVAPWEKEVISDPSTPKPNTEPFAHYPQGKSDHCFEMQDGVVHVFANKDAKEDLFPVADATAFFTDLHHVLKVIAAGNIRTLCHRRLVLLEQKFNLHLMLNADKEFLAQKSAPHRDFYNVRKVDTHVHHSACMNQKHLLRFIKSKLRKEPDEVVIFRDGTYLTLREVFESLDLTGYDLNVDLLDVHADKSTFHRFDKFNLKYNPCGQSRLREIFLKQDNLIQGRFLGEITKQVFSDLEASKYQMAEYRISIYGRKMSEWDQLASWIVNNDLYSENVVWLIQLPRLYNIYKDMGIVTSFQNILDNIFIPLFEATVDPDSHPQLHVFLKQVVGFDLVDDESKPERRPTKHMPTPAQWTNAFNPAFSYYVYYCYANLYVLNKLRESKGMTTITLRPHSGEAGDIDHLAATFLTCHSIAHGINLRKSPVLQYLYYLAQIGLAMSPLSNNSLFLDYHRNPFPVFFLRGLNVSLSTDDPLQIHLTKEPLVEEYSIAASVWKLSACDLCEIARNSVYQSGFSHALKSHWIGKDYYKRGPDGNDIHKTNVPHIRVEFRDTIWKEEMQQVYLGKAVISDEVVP
Test [7] can be described thus: Inhibition of AMP deaminase.

We go through 5 compounds from ChEMBL document CHEMBL2040842, “Synthesis and Biochemical Testing of 3-(Carboxyphenylethyl)imidazo[2,1-f][1,2,4]triazines as Inhibitors of AMP Deaminase” (ACS Med Chem Lett, 2010).

As usually defined, the IC50 is the concentration needed to halve the response being measured. Usually Ki stands for the dissociation constant of the complex between target and ligand, obtained from inhibition or displacement. The low end stands for a stronger hold on the target, the high end for a looser hold on the target.

As for `O=C(O)c1cc(CCn2cnc3c2N=CNCC3O)c2c(c1Br)CCCC2` (stereo unspecified), in test [1], the IC50 came out at 0.5 µM.

Regarding `O=C(O)c1cccc(CCn2cnc3c2NC=NCC3O)c1` (stereo unspecified), affinity in test [2] was put at a Ki of 0.51 µM.

For the compound `O=C(O)c1cccc(CCc2cnc3cncnn23)c1`, the IC50 was found to be 310 µM in test [3], 100 µM in test [4], 370 µM in test [5] and 1400 µM in test [6].

In test [7], `O=P(O)(O)OC[C@H]1O[C@@H](n2cnc3c2N=CNC[C@H]3O)[C@H](O)[C@@H]1O` displayed a Ki of 5.5 pM.

For `O=C(O)c1cc2c(c(CCc3cnc4cncnn34)c1)CCCC2`, the IC50 was 5.7 µM in test [3], 2.3 µM in test [4], 0.9 µM in test [5] and 200 µM in test [6].
